From ChEMBL document CHEMBL1201862, “PubChem BioAssay data set” (2004)
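48-hour exposure; five concentrations; linearly interpolated endpoints. GI50 is the concentration that inhibits growth by half.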 The source made the active and inactive calls. Rule as the data show it: active = GI50 up to about 1.1 µM and inactive = higher.

Tests used:
Assay in all cases: inhibition of tumour cell growth, NCI panel, 48 h
[1] = test system: SF-268
[2] = test system: SW-620
[3] = test system: NCI-H522
[4] = test system: BT-549
[5] = test system: SK-MEL-5
[6] = test system: DU-145
[7] = test system: CCRF-CEM
[8] = test system: HCC 2998
[9] = test system: A549
[10] = test system: TK-10
[11] = test system: ACHN
[12] = test system: MDA-N
[13] = test system: UO-31
[14] = test system: NCI/ADR-RES
[15] = test system: SF-539
[16] = test system: SK-MEL-28
[17] = test system: HOP-92
[18] = test system: K562
[19] = test system: Malme-3M
[20] = test system: SK-OV-3

Measured: GI50

CCCCCCCCCCCCC(=O)NCC(=O)NC(Cc1ccccc1)C(=O)Oc1ccc([N+](=O)[O-])cc1 (configuration not stated)
inactive: [1] 31.9 µM | [2] 39.9 µM | [3] 29.4 µM | [4] 44.9 µM | [5] 72.4 µM | [6] > 100 µM | [7] 29.4 µM | [8] 44.4 µM | [9] > 100 µM | [10] > 100 µM | [11] > 100 µM | [12] > 100 µM | [13] 92.9 µM | [14] 57.1 µM | [15] 91.8 µM

O=C(O[C@H]1CCN2C[C@H]3C[C@H](CN4C(=O)CCC[C@H]34)[C@@H]2C1)c1ccc(O)cc1
inactive: [1] > 100 µM | [16] > 100 µM | [17] > 100 µM | [2] > 100 µM | [3] > 100 µM | [4] > 100 µM | [6] > 100 µM | [7] > 100 µM | [18] > 100 µM | [8] > 100 µM | [19] > 100 µM | [9] > 100 µM | [10] > 100 µM | [11] > 100 µM | [20] > 100 µM | [12] > 100 µM | [13] > 100 µM | [15] > 100 µM

c1nncn1C12C3C4C5C3C1C5C42 (configuration not stated)
inactive: [1] > 100 µM | [16] > 100 µM | [2] > 100 µM | [3] > 100 µM | [4] > 100 µM | [5] > 100 µM | [6] > 100 µM | [7] > 100 µM | [18] > 100 µM | [8] > 100 µM | [9] > 100 µM | [10] > 100 µM | [11] > 100 µM | [20] > 100 µM | [12] > 100 µM | [14] > 100 µM | [15] > 100 µM

O=C(CN1CCOCC1)NC1=Nc2ncccc2C(=O)NN1
inactive: [1] > 10 µM | [16] > 10 µM | [17] > 10 µM | [2] > 10 µM | [4] > 10 µM | [5] > 10 µM | [6] > 10 µM | [7] > 10 µM | [18] > 10 µM | [19] > 10 µM | [9] > 10 µM | [10] > 10 µM | [11] > 10 µM | [20] > 10 µM | [12] > 10 µM | [13] > 10 µM | [15] > 10 µM

CC12CN(CC[N+](C)(C)C)CC1(C)C1CCC2O1 (configuration not stated)
inactive: [1] > 100 µM | [16] > 100 µM | [17] > 100 µM | [2] > 100 µM | [3] > 100 µM | [4] > 100 µM | [5] > 100 µM | [6] > 100 µM | [7] > 100 µM | [18] > 100 µM | [8] > 100 µM | [19] > 100 µM | [9] > 100 µM | [10] > 100 µM | [11] > 100 µM | [20] > 100 µM | [13] > 100 µM | [14] > 100 µM | [15] > 100 µM

Cc1cs/c(=N/c2ccccc2)n1CCC(O)(P(=O)(O)O)P(=O)(O)O
inactive: [1] > 100 µM | [3] > 100 µM | [4] > 100 µM | [5] 71.6 µM | [6] > 100 µM | [8] > 100 µM | [19] > 100 µM | [9] > 100 µM | [10] > 100 µM | [11] 67.3 µM | [20] > 100 µM | [12] > 100 µM | [13] > 100 µM | [14] > 100 µM | [15] > 100 µM

C=C(C)C(=O)OC1CC2=CC(CC3(C)OC3C3OC(=O)C(=C)C13)OC2=O (configuration not stated)
inactive: [1] 20.7 µM | [16] 12.3 µM | [17] 2.9 µM | [2] 2.24 µM | [3] 1.92 µM | [4] 11.8 µM | [5] 16.9 µM | [6] 23.7 µM | [8] 20 µM | [19] 4.23 µM | [9] 18.6 µM | [10] 7.73 µM | [11] 5.41 µM | [20] 18.8 µM | [12] > 10 µM | [13] 13.1 µM | [15] 10.9 µM

CCOC(=O)C1(N)CCc2[nH][nH]c(=O)c2C1 (configuration not stated)
inactive: [16] > 100 µM | [17] > 100 µM | [2] > 100 µM | [3] > 100 µM | [4] > 100 µM | [5] > 100 µM | [7] > 100 µM | [18] > 100 µM | [8] > 100 µM | [19] > 100 µM | [9] > 100 µM | [10] > 100 µM | [11] > 100 µM | [20] > 100 µM | [12] > 100 µM | [13] > 100 µM | [14] > 100 µM | [15] > 100 µM

CCOC(=O)c1cc2cc(C)cc(C(=O)c3ccc([N+](=O)[O-])cc3)c2[nH]1
inactive: [1] > 100 µM | [16] > 100 µM | [17] 93.8 µM | [2] > 100 µM | [3] > 100 µM | [4] > 100 µM | [5] > 100 µM | [6] > 100 µM | [7] > 10 µM | [18] > 100 µM | [8] > 100 µM | [19] > 100 µM | [9] > 100 µM | [10] > 100 µM | [11] > 100 µM | [20] > 100 µM | [12] > 100 µM | [13] > 100 µM | [15] > 100 µM

NNC(=O)c1ccccc1Nc1nc(-c2cccs2)nc2ccc(Br)cc12
inactive: [1] 31.1 µM | [16] 45.5 µM | [17] > 100 µM | [2] > 100 µM | [3] > 100 µM | [4] 84.1 µM | [5] 74 µM | [6] > 100 µM | [7] > 100 µM | [18] 77.6 µM | [8] 90.4 µM | [19] > 100 µM | [9] 85.1 µM | [10] > 100 µM | [11] > 100 µM | [20] > 100 µM | [13] > 100 µM | [14] > 100 µM | [15] > 100 µM

O=C(Nc1cccc(F)c1)c1cc2ccc(O)cc2o/c1=N\c1cccc(F)c1
inactive: [1] 3.03 µM | [16] 5.09 µM | [2] 4.27 µM | [3] 2.99 µM | [4] 4.82 µM | [5] 3.6 µM | [6] 4.27 µM | [7] 2.22 µM | [18] 2.38 µM | [8] 27.1 µM | [19] 4.37 µM | [9] 3.97 µM | [11] 4.88 µM | [20] 13.2 µM | [12] 6.35 µM | [13] 4.36 µM | [14] 3.4 µM | [15] 19.8 µM
